Test results reported in ChEMBL document CHEMBL3112566, “Thiazolopyridone ureas as DNA gyrase B inhibitors: optimization of antitubercular activity and efficacy” (Bioorg Med Chem Lett, 2014).

Test: AUC in mouse at 300 mg/kg, po
Type: ADME, organism-based
Parameters: dose 300 mg/kg, route oral
Conditions: plasma

CCNC(=O)Nc1nc2cc(-c3cccnc3)c(=O)n(C(C)C)c2s1
AUC: 981 µM·h
